These results are taken from patent publication US20030082511A1, “Identification of modulatory molecules using inducible promoters” (priority 2001, published 2003).

Series [1] addresses T1, mouse potassium voltage-gated channel KCNC1 (Mus musculus, UniProt P15388).
T1 construct: The 2 kb KCNC1 gene fragment and the pcDNA4/Tob vector were gel purified, ligated; host or cells: T-REx CHO cells
T1 sequence (P15388 1-585 isoform P15388-3): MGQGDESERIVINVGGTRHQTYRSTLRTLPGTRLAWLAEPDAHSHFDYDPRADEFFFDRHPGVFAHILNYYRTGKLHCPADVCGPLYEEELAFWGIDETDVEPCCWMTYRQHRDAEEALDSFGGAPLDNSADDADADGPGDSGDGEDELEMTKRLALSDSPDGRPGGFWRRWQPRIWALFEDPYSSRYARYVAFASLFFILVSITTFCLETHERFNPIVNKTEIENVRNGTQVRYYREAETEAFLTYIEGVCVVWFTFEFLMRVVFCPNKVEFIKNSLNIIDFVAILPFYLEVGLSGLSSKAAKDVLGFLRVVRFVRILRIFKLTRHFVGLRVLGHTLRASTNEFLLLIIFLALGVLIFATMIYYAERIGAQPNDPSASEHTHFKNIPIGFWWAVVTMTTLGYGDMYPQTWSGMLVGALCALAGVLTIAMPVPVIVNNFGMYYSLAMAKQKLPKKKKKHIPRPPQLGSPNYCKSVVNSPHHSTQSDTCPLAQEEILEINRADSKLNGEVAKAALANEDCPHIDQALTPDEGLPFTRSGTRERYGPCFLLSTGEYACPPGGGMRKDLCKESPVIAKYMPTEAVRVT
The experiment in a line: Membrane potential assay (Disbac5Me4/Disbac3Me4 fluorescence) in tetracycline-inducible KCNC1 TREX/CHO cells. Format: cell-based. As to conditions: for response to KCl addition / depolarization with KCl (membrane potential dye fluorescence): induced KCNC1 CHO cells pre-incubated with BaCl2 30 mM at least 30 minutes; for depolarization (change in fluorescence intensity of the indicator dye) on addition of potassium chloride: KCl added in 50 mM steps, induced vs non-induced KCNC1 CHO cells, FIG. 4. As to the method: In this example, fluorescent dyes are used to assay for changes in membrane potential, essentially as described in Example 4.
A KCNC1 positive TREX/CHO clone was plated at 3×10^6 cells in replicate 10 cm tissue culture dishes. After 24 hours one dish was treated with 10 μg/mL deoxycycline to induce KCNC1 expression. After a 24 hour induction period, both induced and uninduced cells were harvested with trypsin, counted, and adjusted to equal cell densities in hybridoma media (Sigma, St. Louis, Mo.). A solution of 3.3×10^5 cells and 0.4 μM of each Disbac5Me4 and Disbac3Me4 in hybridoma media was stirred in a cuvette in a JY-Fluormax-2 fluorometer (JY, Edison N.J.). Fluorescence intensity from 540 nm excitation and 690 nm emission was measured over time. The extracellular potassium chloride level was adjusted to 50 mM, 10 mM, and 150 mM with 3 N KCl at the indicated times. Each cell population was tested in triplicate and the mean and standard error (SE) were determined.
4-aminopyridine is a known specific inhibitor of Kv3.1b (Grissmer et al., Molec. Pharmacol. 45:1227-1234, 1994; Kirsch and Drewe, Jour. Gen. Physiol. 102:797-816, 1993; Grissmer et al. Jour. Biol. Chem. 267:20971-20979, 1992), the human homologue of KCNC1. […] Pre-incubation with 30 mM KCl had no effect, ruling out the possibility that effects of BaCl2 resulted from simply changing the ionic strength of the extracellular medium (data not shown). Each cell population was tested in triplicate. The mean and SE are shown in the FIG. 5 (aminopyridine) and FIG. 6 (BaCl2).

In series [2] the target is T2, HERG potassium ion channel (Homo sapiens, UniProt Q12809).
T2 construct: expressed in transfected cells; host or cells: T-REx CHO cells, clone 5J
The experiment in a line: Membrane potential assay (Disbac5Me4/Disbac3Me4 fluorescence) in inducible HERG TREX/CHO clone 5J. As to conditions: FIG. 8. Type of series: cell-based. The procedure:
The HERG positive TREX/CHO clone 5J was plated at 3×10^6 cells in replicate 10 cm tissue culture dishes. After 24 hours one dish was treated with […] doxycycline to induce HERG expression. After 24 hours induction, both induced and uninduced cells were harvested with trypsin, counted and adjusted to the same cell density in hybridoma media (Sigma). A solution of 1×10^5 cells/ml and 0.4 μM each Disbac5Me4 and Disbac3Me4 in hybridoma media was stirred in a cuvette in a JY-Spex fluorometer. Fluorescence intensity from 540 excitation and 690 emission was followed over time. The extracellular potassium chloride was adjusted to 100 mM with 3N KCl at the indicated time. 25 nM pimozide was then added at the indicated time.

T2 sequence (Q12809 whole entry): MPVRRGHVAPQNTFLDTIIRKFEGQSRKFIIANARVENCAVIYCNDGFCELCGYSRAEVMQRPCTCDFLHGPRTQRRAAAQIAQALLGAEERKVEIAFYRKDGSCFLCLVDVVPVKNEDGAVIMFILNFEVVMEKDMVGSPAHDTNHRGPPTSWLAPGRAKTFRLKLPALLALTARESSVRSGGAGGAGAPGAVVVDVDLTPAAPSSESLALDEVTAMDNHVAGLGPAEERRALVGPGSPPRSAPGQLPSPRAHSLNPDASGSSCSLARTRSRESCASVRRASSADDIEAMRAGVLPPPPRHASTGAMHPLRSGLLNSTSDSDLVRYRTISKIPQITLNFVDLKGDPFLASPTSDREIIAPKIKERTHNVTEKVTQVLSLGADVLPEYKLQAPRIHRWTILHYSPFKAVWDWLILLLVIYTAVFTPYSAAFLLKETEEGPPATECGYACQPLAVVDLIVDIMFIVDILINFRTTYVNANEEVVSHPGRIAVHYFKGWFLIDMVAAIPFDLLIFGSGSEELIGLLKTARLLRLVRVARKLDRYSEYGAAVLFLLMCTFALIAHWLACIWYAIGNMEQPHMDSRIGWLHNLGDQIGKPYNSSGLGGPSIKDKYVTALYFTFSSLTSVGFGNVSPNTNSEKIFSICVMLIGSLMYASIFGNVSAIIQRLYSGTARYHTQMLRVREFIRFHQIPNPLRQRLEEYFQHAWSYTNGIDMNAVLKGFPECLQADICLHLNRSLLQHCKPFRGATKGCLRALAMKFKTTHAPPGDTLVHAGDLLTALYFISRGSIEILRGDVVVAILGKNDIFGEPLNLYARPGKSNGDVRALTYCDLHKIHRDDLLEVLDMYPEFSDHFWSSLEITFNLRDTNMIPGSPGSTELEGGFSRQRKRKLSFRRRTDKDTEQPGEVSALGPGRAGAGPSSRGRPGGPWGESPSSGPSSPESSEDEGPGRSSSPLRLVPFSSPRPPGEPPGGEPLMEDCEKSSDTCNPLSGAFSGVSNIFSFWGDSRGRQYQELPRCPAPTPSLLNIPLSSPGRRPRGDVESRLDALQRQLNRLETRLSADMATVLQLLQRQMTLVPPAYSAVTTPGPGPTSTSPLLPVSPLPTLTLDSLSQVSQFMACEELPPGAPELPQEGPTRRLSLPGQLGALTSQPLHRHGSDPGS

`[Ba+2].[Cl-].[Cl-]` [BaCl2]: in series [1] (KCNC1 CHO cells pre-incubated with BaCl2 30 mM at least 30 minutes, FIG. 6), the resting potential result was “less polarized resting potential”. Moreover, the “response to KCl addition / depolarization with KCl (membrane potential dye fluorescence)” value in series [1] (FIG. 6) is on record as “ameliorated the response to KCl addition”; in series [1] (FIG. 6, listed as BaCI2) it was “decreased response to depolarization with KCl”. Moreover, in series [1] (pre-incubated with BaCl2 (30 mM), FIG. 6), the “characteristics of cells induced to overexpress KCNC1 compared with uninduced cells” value is on record as “show characteristics more similar to uninduced cells”.
On to `O=c1[nH]c2ccccc2n1C1CCN(CCCC(c2ccc(F)cc2)c2ccc(F)cc2)CC1` [pimozide], for which the “sensitivity of membrane potential to pimozide” value in series [2] (25 nM pimozide added after 100 mM KCl, induced vs uninduced cells) is “more sensitive”.
`Nc1ccncc1` [4-aminopyridine]: in series [1] (induced KCNC1 CHO cells pre-incubated with 4-aminopyridine 900 μM at least 30 minutes, FIG. 5), the “response to KCl addition (membrane potential dye fluorescence)” value is listed as “lessened the response to KCl addition”. The “characteristics of cells induced to overexpress KCNC1 compared with uninduced cells” value in series [1] (pre-incubated with 4-aminopyridine (900 μM), FIG. 5) was “show characteristics more similar to uninduced cells”.
Take `[Cl-].[K+]` [KCl, potassium chloride]: in series [2] (100 mM KCl, induced HERG expressing vs uninduced cells), the “depolarization on addition of potassium chloride” value is “depolarizes the HERG expressing cells to a greater extent than the uninduced cells”. Besides, the “depolarization (change in fluorescence intensity of the indicator dye) on addition of potassium chloride” value is given as “show a response” in series [1] and “depolarization of the an induced population of cells in comparison to a non-induced cell population” in series [1] (listed as potassium chloride). Moreover, the “effect of pre-incubation on membrane potential response (ionic strength control)” value in series [1] (pre-incubation with 30 mM KCl, data not shown) was “no effect”.
